Assay results as given in paper PMC12303380 (PLOS Pathogens, 2025).
Values joined by “and” are separate entries in the source; they are usually repeats but may differ in a detail not shown here. Equal values may be shown once.

Columns and labels:
[1] = system: CD94/NKG2A; conditions: cited from earlier work
[2] = system: CD94/NKG2A; assay type: binding, human
[3] = system: CD94/NKG2C; assay type: binding, human
[4] = target: HLA-E*0103 (Homo sapiens, UniProt P13747); assay type: binding
[5] = system: CD56dimNKG2A- NK cells; assay type: cell-based, human
[6] = system: CD56dimNKG2A+ NK cells; assay type: cell-based, human

## AISPRTLNA [AA9]
[1]
  recognition of HLA-E/peptide complex by NKG2A/CD94 on NK cells: unable to be recognized by NKG2A/CD94

## EADPTGHSY [MAGE-1]
[2]
  CD94/NKG2A+HLA-E+: 0.02% and 0.28% and 0.56%
[3]
  CD94/NKG2C+HLA-E+: 0.54% and 1.07% and 0.11%

## EADPTGHSY/ NLVPMVATV [MAGE-1/HCMV PP65]
[4]
  HLA-E MFI: 8070 and 8138 and 7351

## LQPRTFLL
[1]
  recognition of HLA-E/peptide complex by CD94/NKG2A on NK cells: could recognize and interact

## NLVPMVATV [PP65]
[5]
  Perforin+CD56dimCD16+NKG2A-NKG2C-CD57-NK cells: 97.2 and 72.64 and 80.98 and 81.41
[6]
  CD107a+CD56dimCD16+NKG2A+NKG2C-CD57-NK cells: 4.88 and 4.5 and 3.34

## VMAPRTLIL [HLA-Cw*03 leading seq]
[2]
  CD94/NKG2A+HLA-E+: 46.76% and 47.67% and 24.83%
  frequency of CD94/NKG2A+HLA-E+ cells: 47.67%
[3]
  CD94/NKG2C+HLA-E+: 1.12% and 2.94% and 8.23%
[4]
  FI: 2.38 and 2.67 and 2.55
  FI (fluorescent index of HLA-E expression): 2.55
  HLA-E MFI: 26721 and 22777 and 24852

## VMPLSAPTL
[1]
  recognition of HLA-E/peptide complex by CD94/NKG2A on NK cells: could not be interacted with CD94/NKG2A
